Results: patent US9499550B2 (BRISTOL-MYERS SQUIBB COMPANY, priority 2012, dated 2016)
Where two headings read alike, the source gives them in different places.

Assays:
[1] = test system: HCV genotype 1a (H77 strain) replicon in HUH-7 cells; experiment: HCV replicon luciferase reporter assay, genotype 1a; assay type: cell-based; conditions: Hepatitis C virus, Huh-7, 72 h, 3 days incubation, read-out: LE_1a (EC50, range)
Method in brief: (§1)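 Replicon inhibition for both genotypes was measured as Renilla luciferase signal (EnduRen, 7.5 μM final, 2 h) after 3-day, 37° C exposure of replicon-bearing HUH-7 cells in 4% FCS DMEM, 0.5% DMSO. The 1b construct carries S1179I; the 1a H77 construct carries P1496L and S2204I. Twenty-point, 3-fold dilutions were fitted four-parametrically for EC50, and CC50 was taken from multiplexed Cell Titer-Blue.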

[2] = test system: HCV genotype 1b (Con1) replicon in HUH-7 cells; experiment: HCV replicon luciferase reporter assay, genotype 1b; assay type: cell-based; conditions: Hepatitis C virus, Huh-7, 72 h, 3 days incubation, read-out: LE_1b (EC50, range)
Method in brief: as §1

[3] = HCV genotype 1a replicon luciferase
[4] = HCV genotype 1b replicon luciferase
[5] = HCV genotype 1a replicon luciferase assay, range class
[6] = HCV genotype 1b replicon luciferase assay, range class

SMILES: COc1ccc2c(O[C@@H]3C[C@H]4C(=O)N[C@]5(C(=O)NS(=O)(=O)C6CC6)C[C@H]5/C=C\CC[C@@H](C)C[C@@H](C)[C@H](NC(=O)NC(C)(C)C)C(=O)N4C3)nc(-c3ccc(OC(C)C)nc3)cc2c1 [Compound 5221, (2R,6S,7R,9R,13aS,14aR,16aS,Z)-6-(3-(tert-butyl)ureido)-N-(cyclopropylsulfonyl)-2-((3-(6-isopropoxypyridin-3-yl)-6-methoxyisoquinolin-1-yl)oxy)-7,9-dimethyl-5,16-dioxo-1,2,3,5,6,7,8,9,10,11,13a,14,14a,15,16,16a-hexadecahydrocyclopropa[e]pyrrolo[1,2-a][1,4]diazacyclopentadecine-14a-carboxamide]
- EC50 [1, 3]: < 5.46 nM
- EC50 [2, 4]: < 5.46 nM

SMILES: C[C@@H]1CC/C=C\[C@@H]2C[C@@]2(C(=O)NS(=O)(=O)C2CC2)NC(=O)C2C[C@@H](Oc3nc4ccccc4c4ccccc34)CN2C(=O)[C@@H](NC(=O)OC(C)(C)C(F)(F)F)[C@H](C)C1 (stereo partly drawn) [Compound 5185, 1,1,1-trifluoro-2-methylpropan-2-yl((2R,6S,7R,9R,13aS,14aR,16aS,Z)-14a-((cyclopropylsulfonyl)carbamoyl)-7,9-dimethyl-5,16-dioxo-2-(phenanthridin-6-yloxy)-1,2,3,5,6,7,8,9,10,11,13a,14,14a,15,16,16a-hexadecahydrocyclopropa[e]pyrrolo[1,2-a][1,4]diazacyclopentadecin-6-yl)carbamate]
- EC50 [1, 3]: < 5.46 nM
- EC50 [2, 4]: < 5.46 nM

SMILES: COc1ccc2c(O[C@@H]3C[C@H]4C(=O)N[C@]5(C(=O)NS(=O)(=O)C6CC6)C[C@H]5/C=C\CC[C@H](C)C[C@@H](C)[C@H](NC(=O)OC(C)(C)C)C(=O)N4C3)nc(-c3ccc(N4CCOCC4)cc3)cc2c1 [Compound 5192, tert-butyl ((2R,6S,7R,9S,13aS,14aR,16aS,Z)-14a-((cyclopropylsulfonyl)carbamoyl)-2-((6-methoxy-3-(4-morpholinophenyl)isoquinolin-1-yl)oxy)-7,9-dimethyl-5,16-dioxo-1,2,3,5,6,7,8,9,10,11,13a,14,14a,15,16,16a-hexadecahydrocyclopropa[e]pyrrolo[1,2-a][1,4]diazacyclopentadecin-6-yl)carbamate]
- EC50 [1, 3]: < 5.46 nM
- EC50 [2, 4]: < 5.46 nM

SMILES: COc1nnc(O[C@@H]2C[C@H]3C(=O)N[C@]4(C(=O)NS(=O)(=O)C5(C)CC5)C[C@H]4/C=C\CC[C@H](C)C[C@@H](C)[C@H](NC(=O)OC(C)(C)C(F)(F)F)C(=O)N3C2)c2ccccc12 [Compound 5007, 1,1,1-trifluoro-2-methylpropan-2-yl((2R,6S,7R,9S,13aS,14aR,16aS,Z)-2-((4-methoxyphthalazin-1-yl)oxy)-7,9-dimethyl-14a-(((1-methylcyclopropyl)sulfonyl)carbamoyl)-5,16-dioxo-1,2,3,5,6,7,8,9,10,11,13a,14,14a,15,16,16a-hexadecahydrocyclopropa[e]pyrrolo[1,2-a][1,4]diazacyclopentadecin-6-yl)carbamate]
- EC50 [1, 3]: < 5.46 nM
- EC50 [2, 4]: < 5.46 nM

SMILES: CC[C@@H]1C[C@H](C)CC/C=C\[C@@H]2C[C@@]2(C(=O)NS(=O)(=O)C2(C)CC2)NC(=O)[C@@H]2C[C@@H](Oc3nc4cc(OC)ccc4nc3C(C)C)CN2C(=O)[C@H]1NC(=O)OC(C)(C)C(F)(F)F [Compound 4251]
- EC50 ([1]; GETYPE1A, HCV genotype 1a replicon luciferase): 1.01 to 5 nM
- EC50 ([2]; GETYPE1B, HCV genotype 1b replicon luciferase): 1.01 to 5 nM

SMILES: CCCOc1cc2c(Cl)cccc2c(O[C@@H]2C[C@H]3C(=O)N[C@]4(C(=O)NS(=O)(=O)C5(C)CC5)C[C@H]4/C=C\CC[C@H](C)C[C@@H](C)[C@H](NC(=O)OC4C[C@@H]5C[C@H]5C4)C(=O)N3C2)n1 [Compound 1087, (1S,5S)-bicyclo[3.1.0]hexan-3-yl((2R,6S,7R,9S,13aS,14aR,16aS,Z)-2-((5-chloro-3-propoxyisoquinolin-1-yl)oxy)-7,9-dimethyl-14a-(((1-methylcyclopropyl)sulfonyl)carbamoyl)-5,16-dioxo-1,2,3,5,6,7,8,9,10,11,13a,14,14a,15,16,16a-hexadecahydrocyclopropa[e]pyrrolo[1,2-a][1,4]diazacyclopentadecin-6-yl)carbamate]
- EC50 [1, 5]: 4.82 to 103 nM
- EC50 [2, 6]: < 5.46 nM

SMILES: COc1cnc(O[C@@H]2C[C@H]3C(=O)N[C@]4(C(=O)NS(=O)(=O)C5(C)CC5)C[C@H]4/C=C\CC[C@@H](C)C[C@@H](C)[C@H](NC(=O)OC(C)(C)C(F)(F)F)C(=O)N3C2)c2ccc(N(C)C)cc12 [Compound 3138, 1,1,1-trifluoro-2-methylpropan-2-yl((2R,6S,7R,9R,13aS,14aR,16aS,Z)-2-((6-(dimethylamino)-4-methoxyisoquinolin-1-yl)oxy)-7,9-dimethyl-14a-(((1-methylcyclopropyl)sulfonyl)carbamoyl)-5,16-dioxo-1,2,3,5,6,7,8,9,10,11,13a,14,14a,15,16,16a-hexadecahydrocyclopropa[e]pyrrolo[1,2-a][1,4]diazacyclopentadecin-6-yl)carbamate]
- EC50 [1, 5]: < 5.46 nM
- EC50 [2, 6]: < 5.46 nM

SMILES: COc1ccc2c(O[C@@H]3C[C@H]4C(=O)N[C@]5(C(=O)NS(=O)(=O)C6(CF)CC6)C[C@H]5/C=C\CC[C@@H](C)C[C@@H](C)[C@H](NC(=O)OC(C)(C)C)C(=O)N4C3)nccc2c1 [Compound 4147, tert-butyl (2R,6S,7R,9R,13aS,14aR,16aS,Z)-14a-(1-(fluoromethyl)cyclopropylsulfonylcarbamoyl)-2-(6-methoxyisoquinolin-1-yloxy)-7,9-dimethyl-5,16-dioxo-1,2,3,5,6,7,8,9,10,11,13a,14,14a,15,16,16a-hexadecahydrocyclopropa[e]pyrrolo[1,2-a][1,4]diazacyclopentadecin-6-ylcarbamate]
- EC50 [1, 3]: < 5.46 nM
- EC50 [2, 4]: < 5.46 nM

SMILES: COCCOc1cnc(O[C@@H]2C[C@H]3C(=O)N[C@]4(C(=O)NS(=O)(=O)C5(C)CC5)C[C@H]4/C=C\CC[C@H](C)C[C@@H](C)[C@H](NC(=O)OC(C)(C)C)C(=O)N3C2)c2ccc(OC)cc12 [Compound 1152, tert-butyl ((2R,6S,7R,9S,13aS,14aR,16aS,Z)-2-((6-methoxy-4-(2-methoxyethoxyl)isoquinolin-1-yl)oxy)-7,9-dimethyl-14a-(((1-methylcyclopropyl)sulfonyl)carbamoyl)-5,16-dioxo-1,2,3,5,6,7,8,9,10,11,13a,14,14a,15,16,16a-hexadecahydrocyclopropa[e]pyrrolo[1,2-a][1,4]diazacyclopentadecin-6-yl)carbamate]
- EC50 [1, 5]: < 5.46 nM
- EC50 [2, 6]: < 5.46 nM

SMILES: COc1ccc2c(O[C@@H]3C[C@H]4C(=O)N[C@]5(C(=O)NS(=O)(=O)C6(C)CC6)C[C@H]5/C=C\CC[C@H](C)C[C@@H](C)[C@H](NC(=O)OC(C)(C)C(F)(F)F)C(=O)N4C3)nc(N(C)C)nc2c1 [Compound 3003, 1,1,1-trifluoro-2-methylpropan-2-yl((2R,6S,7R,9S,13aS,14aR,16aS,Z)-2-((2-(dimethylamino)-7-methoxyquinazolin-4-yl)oxy)-7,9-dimethyl-14a-(((1-methylcyclopropyl)sulfonyl)carbamoyl)-5,16-dioxo-1,2,3,5,6,7,8,9,10,11,13a,14,14a,15,16,16a-hexadecahydrocyclopropa[e]pyrrolo[1,2-a][1,4]diazacyclopentadecin-6-yl)carbamate]
- EC50 [1, 5]: < 5.46 nM
- EC50 [2, 6]: < 5.46 nM

SMILES: COc1ccc2c(O[C@@H]3C[C@H]4C(=O)N[C@]5(C(=O)NS(=O)(=O)C6(CF)CC6)C[C@H]5/C=C\CC[C@@H](C)C[C@@H](C)[C@H](NC(=O)OC(C)(C)C(F)(F)F)C(=O)N4C3)nc(N(C)C)nc2c1 [Compound 3010, 1,1,1-trifluoro-2-methylpropan-2-yl((2R,6S,7R,9R,13aS,14aR,16aS,Z)-2-((2-(dimethylamino)-7-methoxyquinazolin-4-yl)oxy)-14a-(((1-(fluoromethyl)cyclopropyl)sulfonyl)carbamoyl)-7,9-dimethyl-5,16-dioxo-1,2,3,5,6,7,8,9,10,11,13a,14,14a,15,16,16a-hexadecahydrocyclopropa[e]pyrrolo[1,2-a][1,4]diazacyclopentadecin-6-yl)carbamate]
- EC50 [1, 5]: < 5.46 nM
- EC50 [2, 6]: < 5.46 nM

SMILES: CCCOc1cnc(O[C@@H]2C[C@H]3C(=O)N[C@]4(C(=O)NS(=O)(=O)C5(C)CC5)C[C@H]4/C=C\CC[C@@H](C)C[C@@H](C)[C@H](NC(=O)OC(C)(C)C)C(=O)N3C2)c2ccccc12 [Compound 5079, tert-butyl ((2R,6S,7R,9R,13aS,14aR,16aS,Z)-7,9-dimethyl-14a-(((1-methylcyclopropyl)sulfonyl)carbamoyl)-5,16-dioxo-2-((4-propoxyisoquinolin-1-yl)oxy)-1,2,3,5,6,7,8,9,10,11,13a,14,14a,15,16,16a-hexadecahydrocyclopropa[e]pyrrolo[1,2-a][1,4]diazacyclopentadecin-6-yl)carbamate]
- EC50 [1, 3]: < 5.46 nM
- EC50 [2, 4]: < 5.46 nM

SMILES: COc1cnc(O[C@@H]2C[C@H]3C(=O)N[C@]4(C(=O)NS(=O)(=O)C5CC5)C[C@H]4/C=C\CC[C@@H](C)C[C@@H](C)[C@H](NC(=O)OC(C)(C)C)C(=O)N3C2)c2cc(Cl)ccc12 [Compound 1207, tert-butyl ((2R,6S,7R,9R,13aS,14aR,16aS,Z)-2-((7-chloro-4-methoxyisoquinolin-1-yl)oxy)-14a-((cyclopropylsulfonyl)carbamoyl)-7,9-dimethyl-5,16-dioxo-1,2,3,5,6,7,8,9,10,11,13a,14,14a,15,16,16a-hexadecahydrocyclopropa[e]pyrrolo[1,2-a][1,4]diazacyclopentadecin-6-yl)carbamate]
- EC50 [1, 3]: 1.01 to 5 nM
- EC50 [2, 4]: 0.51 to 1 nM
